In general, EC50 refers to the concentration at which the effect is half-maximal.

Like-named read-outs stand apart in the source and are kept apart here.

The target of experiment [1] is T1, rat APJ (Rattus norvegicus, UniProt Q9JHG3).
T1 construct: expressed in transfected cells; host or cells: CHO cells, stably transfected clonal line CHO-B78
T1 sequence (Q9JHG3 1-377): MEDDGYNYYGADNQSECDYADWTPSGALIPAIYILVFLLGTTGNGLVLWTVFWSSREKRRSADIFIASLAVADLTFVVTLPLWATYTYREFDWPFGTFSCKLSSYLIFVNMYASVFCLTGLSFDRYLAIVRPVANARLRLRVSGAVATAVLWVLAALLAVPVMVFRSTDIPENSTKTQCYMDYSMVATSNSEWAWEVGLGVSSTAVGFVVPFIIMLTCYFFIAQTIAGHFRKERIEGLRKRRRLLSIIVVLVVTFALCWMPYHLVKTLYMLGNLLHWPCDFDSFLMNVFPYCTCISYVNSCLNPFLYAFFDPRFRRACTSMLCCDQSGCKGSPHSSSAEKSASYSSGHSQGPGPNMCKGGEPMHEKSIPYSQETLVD
As to the kind of experiment: ERK1/2 activation (ppERK1/2 immunostaining, IN Cell Analyzer) in CHO-B78 cells. The conditions noted are these: 10min at 37°C. The class given is cell-based.
Protocol: Chinese hamster ovary (CHO) cells were transfected with the rat aplnr cDNA (B78 [23]) as previously described [26]. Stably-transfected clonal cells were obtained by limiting dilution, and expression of aplnr was determined by Northern dot blots using two ^32P-dATP-labelled 48bp oligonucleotide specific for the rat aplnr sequence (B78A and B78B [23]; see ISHH below). The highest aplnr-expressing cell clones were expanded for use, and one line (CHO-B78) was used for branched-chain in situ hybridization histochemistry and ERK signal transduction assays (see below).
The nuclear and cytoplasmic fluorescence intensities in individual cells were quantified (in arbitrary units)—data was normalized to vehicle controls after subtraction of ‘no primary antibody’ backgrounds. In each experiment the data (nuclear + cytoplasmic ppERK measurements) is mean ± SEM, n = 6 (approx 1200 cells imaged from 3 wells of a 96-well plate; experiments repeated twice).
IN Cell Analyser 1000 experiments were performed in triplicate wells, with experiments performed at least 2 times. Statistical analysis was with a one-way ANOVA and post hoc Dunnett’s test with GraphPad Prism software (version 4.0b). p<0.05 was considered as statistically significant.
Cells were treated for 10min at 37°C with the indicated concentration of ligands. […]

In experiment [2] the test system is cardiac contractility in adult rodents and humans. As to conditions: in vivo, ref [2],[20],[33],[34],[35]; cited from earlier work. The text has this:
In zebrafish, apela is expressed primarily in the embryonic heart and appears to be the main APJ ligand in ...

The test system of experiment [3] is APJ. Also noted: method as in 3 sources, one per row (each row's own in cited_ref): ref [11],[12] = [11]; PMID 25995451; doi:10.1074/jbc.M115.648238; 11 Deng C , Chen H , Yang N , Feng Y , Hsueh AJW . Apela regulates fluid homeostasis by binding to the APJ receptor to activate Gi signaling . J Biol Chem . 2015; 290 : 18261 – 18268 . doi: 10.1074/j || [12]; PMID 25639753; doi:10.1038/srep08170; 12 Wang Z , Yu D , Wang M , Wang Q , Kouznetsova J , Yang R , et al Elabela-apelin receptor signaling pathway is functional in mammalian systems . Sci Rep . 2015; 5 : 8170 doi: 10.1038/srep08170 2563 ||| ref [2] = [2]; PMID 23943882; doi:10.1530/JOE-13-0227; 2 O’Carroll A-M , Lolait SJ , Harris LE , Pope GR . The apelin receptor APJ: journey from an orphan to a multifaceted regulator of homeostasis . J Endocrinol . 2013; 219 : 13 – 35 . 23943882 10.1530/ ||| ref [11] = [11]; PMID 25995451; doi:10.1074/jbc.M115.648238; 11 Deng C , Chen H , Yang N , Feng Y , Hsueh AJW . Apela regulates fluid homeostasis by binding to the APJ receptor to activate Gi signaling . J Biol Chem . 2015; 290 : 18261 – 18268 . doi: 10.1074/j. As to conditions: cited from earlier work. The text has this: APJ activation by apelin-13 may involve multiple G proteins, while some actions involving ... || A second endogenous ligand for APJ has recently been discovered. Originally annotated as a long non-coding (nc) RNA (termed Ende) expressed primarily in the definitive endoderm during mouse embryogenesis, the apela (otherwise known as elabela or toddler) gene is also translated. It encodes a predicted 54 (58 in zebrafish) amino acid precursor molecule that is highly conserved across vertebrates and is structurally distinct from the apelin prohormone. The apela precursor can be enzymatically processed into a number of biologically active proteoforms such as ... || APJ was an orphan GPCR [23, 31] until its endogenous ligand apelin was isolated from stomach extracts by ‘reverse pharmacology’ almost 20 years ago [32]. It has recently been proposed that apela, a distinct protein unrelated to apelin, and highly conserved across vertebrates, is a new endogenous ligand for APJ.

In experiment [4] the test system is renal APJ. The conditions noted are these: cited from earlier work. The text has this:
This depends on apela binding heterogeneous nuclear ribonucleoprotein L (hnRNPL), an inhi ... || The expression of genes for one or both APJ-ligands with their receptor in the same cell, or cells expressing either ligand gene in the close proximity of APJ-expressing cells, raises the possibility of autocrine and/or paracrine actions for the apelinergic system within the heart and kidney. […] Aplnr and apelin appear to be co-localized in endothelial cell ...

For experiment [5] the following is noted: exogenously administered; ref [17]; cited from earlier work. The text has this:
(§1) This depends on apela binding heterogeneous nuclear ribonucleoprotein L (hnRNPL), an inhi ...

Experiment [6] has as its system human embryonic stem cells (ESCs). The conditions noted are these: which did not express aplnr, ref [18]; cited from earlier work.
Excerpt: as §1

For experiment [7], the system named is a number of tissues and cells. Also noted: method as in PMID 23943882, PMID 25936916. The conditions noted are these: ref [2],[19]; cited from earlier work. From the text:
Many questions remain to be explored. For example, does apela in its ncRNA or peptide form(s) contribute to the pathological dispositions of some cardiovascular and metabolic conditions?

Experiment [8] concerns GPCR CXCR4 in cultured human umbilical vein endothelial cells. The conditions noted are these: apela stimulation or knockdown, ref [41]; cited from earlier work. The text has this: (§2) The expression of genes for one or both APJ-ligands with their receptor in the same cell, or cells expressing either ligand gene in the close proximity of APJ-expressing cells, raises the possibility of autocrine and/or paracrine actions for the apelinergic system within the heart and kidney. […] Aplnr and apelin appear to be co-localized in endothelial cell ...

Experiment [9] concerns collecting duct APJ. The conditions noted are these: proposed, acting on collecting duct APJ; ref [24]; cited from earlier work. From the text:
Apela mRNA transcripts appear to be more prevalent during development. They are predominantly expressed in the heart of embryonic rodents and zebrafish, and are also detected in isolated cells from the adult rat heart, and in adult rat and mouse kidney by RT-PCR. The precise renal location of apela gene expression in the kidney has not been reported. Evidence for renal apelin expression is less convincing—it appears to be sparsely distributed in tissue endothelial cells and perhaps vascular epithelial cells and glomeruli. In the rat and ...

The subject of experiment [10] is microdissected glomeruli. As to conditions: microdissected glomeruli in vitro; ref [22]; cited from earlier work.
Excerpt: as §2

“apela-32: rat apela-32 (cyclized, pyroglutamated; Severn Biotech, U.K.) (EKSVNFPRRRKLYRHNCFRRRCISLHSRVPFP; not fully specified; N-terminal pyroglutamate (from Gln1 of the mature peptide))”: the EC50 in experiment [1] (CHO-B78 cells stably transfected with rat aplnr, 0.01-1000nM ligand, serum-starved O/N (0.1% foetal calf serum), whole-cell (nuclear + cytoplasmic) ppERK immunofluorescence, averaged from two separate experiments, triplicate wells, read-out: EC50 for ERK activation) was 15.9 nM.
On to “apela: second endogenous ligand for APJ; gene encodes a predicted 54 amino acid precursor molecule”, for which the “effect on cardiac contractility” value in [2] is on record as “increase cardiac contractility”. For the same substance, the “ERK activation in APJ-expressing cells” value in experiment [3] (in vitro, previous studies confirmed by this paper, ref [11]) is recorded as “stimulates ERK activation in APJ-expressing cells in vitro”. The effect on diuresis entry in [4] (exogenously administered, ref [11]) is “promotes diuresis”. Moreover, the “effect on food intake” value in experiment [5] is “anorexigenic”. In addition, in experiment [6], the PI3K/Akt pathway activation result was “activates the PI3K/Akt pathway” and the effect on apoptosis entry is listed as “anti-apoptotic”. The anti-apoptotic activity result in experiment [7] is reported as “anti-apoptotic activity”. In addition, in experiment [1] (CHO-B78 cells, rat APJ, one-way ANOVA with post hoc Dunnett's test vs vehicle (basal)), the “ERK activation (stimulation vs basal)” value was “activates signal transduction pathways (ERK activation) in cells expressing the cloned rat APJ”. Further, in [8], the “effect on CXCR4 expression” value is given as “no effect”.
apelin: the “effect on cardiac contractility” value in experiment [2] is listed as “increase cardiac contractility”. Moreover, the “signal transduction pathways activated on binding APJ” value in experiment [3] (often G protein-dependent, ref [2]) is “inhibition of adenylate cyclase, stimulation of MAP kinase (ERK) phosphorylation, Akt phosphorylation that could contribute to neuroprotection, and enhancing nitric oxide synthase activity”. For the same substance, the anti-apoptotic activity entry in experiment [7] is listed as “anti-apoptotic activity”.
As to apelin-17, the effect on diuresis entry in experiment [4] (intravenous, ref [22]) is listed as “causes diuresis”. In addition, in experiment [9], the “effect on antidiuretic action of arginine vasopressin” value is “counteracts the antidiuretic effect of arginine vasopressin”. Besides, in [10], the “effect on haemodynamic function in glomeruli” value is on record as “effects haemodynamic function in microdissected glomeruli in vitro”.

These data come from PMC5560558, “Expression and functional implications of the renal apelinergic system in rodents” (PLoS ONE, 2017).
